The text below walks through data of BindingDB's records for doi:10.1111/cbdd.12205 (Srtm University, 2014).

One may read the IC50 as the concentration needed to halve the response being measured. A high value points to weaker potency.

In experiment [1] the target is Xanthine dehydrogenase/oxidase (Bos taurus, UniProt P80457). In words: Xanthine Oxidase Activity. The following applies: pH 7.6; 25 °C. As for the experimental part: The enzyme was preincubated with test compound, dissolved in DMSO (1% v/v), for 5 min and the reaction was initiated by the addition of xanthine.
Sequence of Xanthine dehydrogenase/oxidase (P80457 whole entry): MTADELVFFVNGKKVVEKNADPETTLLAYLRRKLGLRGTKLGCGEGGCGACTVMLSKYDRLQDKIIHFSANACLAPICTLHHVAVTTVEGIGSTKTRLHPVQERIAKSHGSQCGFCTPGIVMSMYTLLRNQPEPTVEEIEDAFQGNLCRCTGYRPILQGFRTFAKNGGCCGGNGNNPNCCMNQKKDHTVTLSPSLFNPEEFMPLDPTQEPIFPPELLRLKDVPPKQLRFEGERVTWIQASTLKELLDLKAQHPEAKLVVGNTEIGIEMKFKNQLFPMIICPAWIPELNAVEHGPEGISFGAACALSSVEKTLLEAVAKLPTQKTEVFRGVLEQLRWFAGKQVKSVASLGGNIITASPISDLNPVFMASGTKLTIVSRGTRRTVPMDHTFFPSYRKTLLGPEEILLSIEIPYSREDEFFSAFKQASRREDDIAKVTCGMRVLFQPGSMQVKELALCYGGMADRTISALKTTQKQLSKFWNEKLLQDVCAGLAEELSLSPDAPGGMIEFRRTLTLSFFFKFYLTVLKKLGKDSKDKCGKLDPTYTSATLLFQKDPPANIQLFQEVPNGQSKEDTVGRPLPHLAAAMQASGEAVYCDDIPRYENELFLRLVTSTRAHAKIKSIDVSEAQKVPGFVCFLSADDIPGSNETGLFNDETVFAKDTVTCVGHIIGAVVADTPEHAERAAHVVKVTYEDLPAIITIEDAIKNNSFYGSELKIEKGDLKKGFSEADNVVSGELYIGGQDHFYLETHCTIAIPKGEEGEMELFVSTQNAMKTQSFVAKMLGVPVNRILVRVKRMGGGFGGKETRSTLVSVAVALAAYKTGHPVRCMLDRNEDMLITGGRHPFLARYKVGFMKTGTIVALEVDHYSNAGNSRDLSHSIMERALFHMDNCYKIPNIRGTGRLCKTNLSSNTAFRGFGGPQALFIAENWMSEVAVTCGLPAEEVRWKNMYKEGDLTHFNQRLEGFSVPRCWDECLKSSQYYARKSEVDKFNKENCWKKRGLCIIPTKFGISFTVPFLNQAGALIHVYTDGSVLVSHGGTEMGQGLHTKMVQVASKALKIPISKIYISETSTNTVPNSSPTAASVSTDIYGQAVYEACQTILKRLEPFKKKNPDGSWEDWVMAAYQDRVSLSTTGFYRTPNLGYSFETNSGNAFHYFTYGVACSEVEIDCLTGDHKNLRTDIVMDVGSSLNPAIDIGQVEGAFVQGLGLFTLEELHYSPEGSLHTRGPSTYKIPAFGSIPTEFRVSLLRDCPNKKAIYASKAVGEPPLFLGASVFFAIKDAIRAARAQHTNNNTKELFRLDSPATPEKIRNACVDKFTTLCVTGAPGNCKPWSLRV
The target in the next experiment is Alpha-glucosidase MAL12 (Saccharomyces cerevisiae (strain ATCC 204508 / S288c), UniProt P53341). As to the kind of experiment: Alpha-Glucosidase Assay. As for the experimental part: The assay was performed using isolated phenolics from maize, and inhibition was determined according to previously described method.
Sequence of Alpha-glucosidase MAL12 (P53341 whole entry): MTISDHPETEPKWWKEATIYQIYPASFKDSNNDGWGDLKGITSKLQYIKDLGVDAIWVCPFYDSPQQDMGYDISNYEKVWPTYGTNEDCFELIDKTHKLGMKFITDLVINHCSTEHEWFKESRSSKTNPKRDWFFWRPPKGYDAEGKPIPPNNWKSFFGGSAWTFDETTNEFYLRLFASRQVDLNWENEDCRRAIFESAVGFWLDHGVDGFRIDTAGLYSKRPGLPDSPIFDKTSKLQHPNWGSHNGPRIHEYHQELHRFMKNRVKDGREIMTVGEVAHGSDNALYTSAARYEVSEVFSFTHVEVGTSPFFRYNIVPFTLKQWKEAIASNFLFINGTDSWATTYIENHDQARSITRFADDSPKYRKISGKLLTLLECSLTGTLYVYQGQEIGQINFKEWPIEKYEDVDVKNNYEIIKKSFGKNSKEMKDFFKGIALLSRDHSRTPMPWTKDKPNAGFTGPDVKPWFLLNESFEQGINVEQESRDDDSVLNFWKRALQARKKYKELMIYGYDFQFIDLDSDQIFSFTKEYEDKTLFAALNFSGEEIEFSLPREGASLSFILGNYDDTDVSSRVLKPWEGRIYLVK

Consider `O=C(O)c1c(O)cc(O)cc1O` [2,4,6-trihydroxybenzoic acid (M3)], for which the IC50 in experiment [1] worked out at 6.5 µM; against Alpha-glucosidase MAL12 it was 113 µM.
Taken in the same sequence, the figures for `CC[C@H]1O[C@@H](Oc2c(-c3ccc(O)c(OC)c3)oc3cc(O)cc(=O)c-3c2O)[C@H](O)[C@@H](O)[C@@H]1O` [3‐{[(2S,3R,4S,5S,6R)‐6‐ethyl‐3,4,5‐trihydroxyoxan‐2‐ yl]oxy}‐5,7‐dihydroxy‐2‐(4‐hydroxy‐3‐ methoxyphenyl)‐4H‐chromen‐4‐one] were 8.6 µM and 246 µM.
Taken in the same sequence, the figures for `COc1cc(C(=O)O)ccc1O` [4-hydroxy-3-methoxybenzoic acid] were 8.5 µM and 205 µM.
Taken in the same sequence, the figures for `O=c1cc(O)cc2oc(-c3ccc(O)cc3)c(OC3OC(CO)C(O)C(O)C3O)cc1-2` [5,7‐dihydroxy‐2‐(4‐hydroxyphenyl)‐3‐ {[(2S,3R,4S,5S,6R)‐3,4,5‐trihydroxy‐6‐ (hydroxymethyl)oxan‐2‐yl]oxy}‐1λ⁴‐chromen‐1‐ylium] were 7 µM and 198 µM.
`COc1cc(-c2oc3cc(O)cc(=O)c-3cc2OC2OC(CO)C(O)C(O)C2O)ccc1O` [5,7‐dihydroxy‐2‐(4‐hydroxy‐3‐methoxyphenyl)‐3‐ {[(2S,3R,4S,5S,6R)‐3,4,5‐trihydroxy‐6‐ (hydroxymethyl)oxan‐2‐yl]oxy}‐1λ⁴‐chromen‐1‐ylium]: the IC50 in experiment [1] worked out at 8.7 µM; against Alpha-glucosidase MAL12, 260 µM.
Taken in the same sequence, the figures for `O=c1cc(O)cc2oc(-c3ccc(O)c(O)c3)c(OC3OC(CO)C(O)C(O)C3O)cc1-2` (stereo not drawn) [Cyanidin-3-glucoside (M8)] were 7.2 µM and 221 µM.
As to `COc1cc(/C=C/C(=O)O)ccc1O` [Ferulic acid (M5)], the IC50 in experiment [1] was found to be 8.2 µM; against Alpha-glucosidase MAL12, 251 µM.
Taken in the same sequence, the figures for `O=C(O)c1ccc(O)c(O)c1` [Protocatechuic acid (M1)] were 5.8 µM and 85.1 µM.
Taken in the same sequence, the figures for `O=C(O)/C=C/c1ccc(O)cc1` [p-Coumaric Acid] were 6.8 µM and 90.8 µM.
